Consider 25 compounds from US7655654B2, “Farnesyl transferase inhibiting tricyclic quinazoline derivatives substituted with carbon-linked imidazoles or triazoles” (Janssen Pharmaceutica NV, priority 2002, dated 2010).

In series [1] the target is farnesyl protein transferase (Homo sapiens, UniProt P49354+P49356). In words: In vitro assay for inhibition of farnesyl protein transferase. The format is biochemical. Conditions: for inhibition at 0.1 µM / % of inhibition at 10^−7 M: at 10^−7 M; for IC50 / Enzyme activity pIC50: negative log value of the IC50-value; for IC50: read-out: Enzyme activity pIC50 (converted). The procedure: Example C.1: “In Vitro Assay for Inhibition of Farnesyl Protein Transferase”:
An in vitro assay for inhibition of farnesyl transferase was performed essentially as described in WO 98/40383, pages 33-34. Herein the effects of test compounds are expressed as pIC50 (the negative log value of the IC50-value) and as % of inhibition at 10^−7 M (see Table F-2)

For `CN1c2ccc(C(O)(c3ccc(I)cc3)c3nncn3C)cc2C(c2cccc(Cl)c2)n2nnnc21` (mixture of isomers) [Compound 22], the melting point (usually the temperature of the solid-liquid transition) was determined as 181 °C. For the same compound, in series [1], the inhibition – broadly, the share of the control response that was lost under treatment – at 0.1 µM turned out to be 57% and the IC50 is below 100 nM.

On to `CN1c2ccc(C(O)(c3ccc(Cl)cc3)c3cncn3C)cc2C(c2cccc(Cl)c2)n2nnnc21` (mixture of isomers) [Compound 19], for which, in series [1], testing at 0.1 µM gave an inhibition of 92% and the IC50 is 9.71 nM.

As to `Cn1cncc1[C@@](N)(c1ccc(Cl)cc1)c1ccc2c(c1)C(c1cccc(Cl)c1)n1nnnc1N2` (single isomer, unassigned) [Compound 12], the melting point is 162 °C. In series [1], the “% of inhibition at 10^−7 M” value was found to be 42% and the “Enzyme activity pIC50” value is on record as below 7.

On to `COc1ccc(C(O)(c2ccc3c(c2)C(c2cccc(Cl)c2)n2nnnc2N3)c2cncn2C)cc1` (stereo not drawn) [Compound 3, 9-(3-chlorophenyl)-4,9-dihydro-α-(4-methoxyphenyl)-α-(1-methyl-1H-imidazol-5-yl)-tetrazolo[5,1-]quinazoline-7-methanol], for which, in series [1], the inhibition at 0.1 µM worked out at 80% and the IC50 is 23.3 nM.

As to `Cc1ccc(C(N)(c2ccc3c(c2)C(c2cccc(Cl)c2)n2nnnc2N3)c2cncn2C)cc1` (single isomer, unassigned) [Compound 5, 9-(3-chlorophenyl)-4,9-dihydro-α-(1-methyl-1H-imidazol-5-yl)-α-(4-methylphenyl)-tetrazolo[5,1-b]quinazoline-7-methanamine], in series [1], the “% of inhibition at 10^−7 M” value is 99% and the IC50 is below 1 nM.

`COc1ccc(C(c2ccc3c(c2)C(c2cccc(Cl)c2)n2nnnc2N3C)c2cncn2C)cc1` (mixture of isomers) [Compound 20]: the melting point is 108 °C. In addition, in series [1], the inhibition at 0.1 µM stood at 91% and the IC50 is 9.2 nM.

As to `Cn1cncc1[C@@](N)(c1ccc(Cl)cc1)c1ccc2c(c1)C(c1cccc(Cl)c1)n1nnnc1N2` (single isomer, unassigned) [Compound 11], the melting point is 242 °C. Moreover, in series [1], testing at 0.1 µM gave an inhibition of 46% and the IC50 was above 100 nM.

Consider `CCOC(=O)CN1c2ccc(C(O)(c3ccc(OC)cc3)c3cncn3C)cc2C(c2cccc(Cl)c2)n2nnnc21` (mixture of isomers) [Compound 13], for which the melting point was 126 °C. Besides, in series [1], the inhibition at 0.1 µM turned out to be 80% and the IC50 is 25.4 nM.

As for `COc1ccc(C(O)(c2ccc3c(c2)C(c2cccc(Cl)c2)n2nnnc2N3)c2cncn2C)cc1` (single isomer, unassigned) [Compound 7], the melting point was above 260 °C. In addition, in series [1], the “% of inhibition at 10^−7 M” value stood at 64% and the IC50 was below 100 nM.

Take `COc1ccc(C(O)(c2ccc3c(c2)C(c2cccc(Cl)c2)n2nnnc2N3Cc2ccc(C#N)cc2)c2cncn2C)cc1` (mixture of isomers) [Compound 14]: the melting point was determined as 164 °C. In series [1], the inhibition at 0.1 µM turned out to be 74% and the IC50 was 18.6 nM.

Turning to `Cn1cncc1C(O)(c1ccc(I)cc1)c1ccc2c(c1)C(c1cccc(Cl)c1)n1nnnc1N2` (mixture of isomers) [Compound 18], the melting point was 225 °C. Besides, in series [1], testing at 0.1 µM gave an inhibition of 76% and the IC50 is 29.9 nM.

On to `Cn1cncc1C(O)(c1ccc(Cl)cc1)c1ccc2c(c1)C(c1cccc(Cl)c1)n1nnnc1N2` (stereo not drawn) [Compound 1, 9-(3-chlorophenyl)-α-(4-chlorophenyl)4,9-dihydro-α-(1-methyl-1H-imidazol-5-yl)-tetrazolo[5,1-b]quinazoline-7-methanol], for which the melting point is above 260 °C. In series [1], testing at 0.1 µM gave an inhibition of 81% and the IC50 was 25.4 nM.

Compound `Cn1cncc1[C@](N)(c1ccc(Cl)cc1)c1ccc2c(c1)C(c1cccc(Cl)c1)n1nnnc1N2` (stereo partly drawn) [Compound 24] had a melting point of 183 °C. Moreover, in series [1], the “% of inhibition at 10^−7 M” value was 88% and the IC50 was 11.7 nM.

Compound `CN1c2ccc(C(O)(c3ccc(I)cc3)c3cncn3C)cc2C(c2cccc(Cl)c2)n2nnnc21` (mixture of isomers) [Compound 21] showed a melting point of 228 °C. In addition, in series [1], testing at 0.1 µM gave an inhibition of 78% and the IC50 is 19.1 nM.

Consider `COc1ccc(C(O)(c2ccc3c(c2)C(c2cccc(Cl)c2)n2nnnc2N3C)c2cncn2C)cc1` (mixture of isomers) [Compound 6], for which, in series [1], the “% of inhibition at 10^−7 M” value came to 90% and the IC50 is 14.1 nM.

Take `CCOC(c1ccc(Cl)cc1)(c1ccc2c(c1)C(c1cccc(Cl)c1)n1nnnc1N2)c1cncn1C` (stereo not drawn) [Compound 10]: in series [1], testing at 0.1 µM gave an inhibition of 43% and the IC50 was above 100 nM.

Turning to `Cn1cnnc1C(O)(c1ccc(I)cc1)c1ccc2c(c1)C(c1cccc(Cl)c1)n1nnnc1N2` (mixture of isomers) [Compound 16], the melting point stood at 226 °C. For the same compound, in series [1], the inhibition at 0.1 µM amounted to 45% and the IC50 was above 100 nM.

In the case of `COc1ccc(C(O)(c2ccc3c(c2)C(c2cccc(Cl)c2)n2nnnc2N3)c2cncn2C)cc1` (single isomer, unassigned) [Compound 8], the melting point is 176 °C. Further, in series [1], the “% of inhibition at 10^−7 M” value came out at 88% and the IC50 was 12.4 nM.

For `Cn1cncc1C(O)(c1ccc(F)cc1)c1ccc2c(c1)C(c1cccc(Cl)c1)n1nnnc1N2` (stereo not drawn) [Compound 2, 9-(3-chlorophenyl)-α-(4-fluorophenyl)4,9-dihydro-α-(1-methyl-1H-imidazol-5-yl)-tetrazolo[5,1-b]quinazoline-7-methanol], the melting point is 180 °C. In series [1], the inhibition at 0.1 µM was 96% and the IC50 was 1.77 nM.

For the compound `Cn1cncc1[C@](N)(c1ccc(Cl)cc1)c1ccc2c(c1)C(c1cccc(Cl)c1)n1nnnc1N2` (stereo partly drawn) [Compound 23], the melting point was above 250 °C. In series [1], the inhibition at 0.1 µM was determined as 98% and the IC50 was 2.54 nM.

In turn, `COc1ccc(C(O)(c2ccc3c(c2)C(c2cccc(Cl)c2)n2nnnc2N3CC2CC2)c2cncn2C)cc1` (stereo not drawn) [Compound 9] showed a melting point of 121 °C. In series [1], at 0.1 µM the inhibition was 82% and the IC50 is 20.6 nM.

The compound `Cn1cnnc1C(O)(c1ccc(I)cc1)c1ccc2c(c1)C(c1cccc(Cl)c1)n1nnnc1N2` (stereo not drawn) [Compound 17] yielded a melting point of 195 °C. Moreover, in series [1], the “% of inhibition at 10^−7 M” value turned out to be 42% and the “Enzyme activity pIC50” value is below 7.

As to `Cc1ccc(C(N)(c2ccc3c(c2)C(c2cccc(Cl)c2)n2nnnc2N3)c2cncn2C)cc1` (single isomer, unassigned) [Compound 4, 9-(3-chlorophenyl)-4,9-dihydro-α-(1-methyl-1H-imidazol-5-yl)-α-(4-methylphenyl)-tetrazolo[5,1-b]quinazoline-7-methanamine], in series [1], the “% of inhibition at 10^−7 M” value is 74% and the IC50 was 34.6 nM.

Consider `COc1ccc(C(O)(c2ccc3c(c2)C(c2cccc(Cl)c2)n2nnnc2N3C)c2cncn2C)cc1` (mixture of isomers) [Compound 15], for which the melting point turned out to be 144 °C. In addition, in series [1], 0.1 µM produced 88% inhibition and the IC50 is 16.6 nM.

Turning to `CC(C)OC(=O)c1ccc(C(O)(c2ccc3c(c2)C(c2cccc(Cl)c2)n2nnnc2N3C)c2cncn2C)cc1` (mixture of isomers) [Compound 25], the melting point is 165 °C. Moreover, in series [1], at 0.1 µM the inhibition was 66% and the IC50 is below 100 nM.
